Assays:
Details in all cases: 28th day of the treatment
Cyperus serotinus Rottb. = assay: Test for herbicidal effect by paddy soil treatment; assay type: in vivo
Source text: (§1) A paddy soil was filled in a plastic pot of 100 cm^2 and subjected to puddling. Thereinto were sowed seeds of Echinochloa oryzicola Vasing, Monochoria vaginalis (Burm. f.) Kunth, Schoenoplectus juncoides (Roxb.) Paila or Cyperus serotinus Rottb., after which water was filled at a depth of 3 cm. Each pot was placed in a greenhouse for raising, At a timing when the Echinochloa oryzicola Vasing reached about a two-leaf stage, a seedling of two-leaf stage rice (variety: Kinnanpuu) was transplanted into each pot at a depth of 2 cm. A wettable powder prepared in accordance with Formulation Example 2 was diluted with water based on the total sum of the active ingredients, and the dilution was dropped on the water surface of the pot. Then, the pot was allowed to stand for raising. The herbicidal effect of the wettable powder was examined at the 28th day of the treatment (the dropping of the dilution) in accordance with the standard of Table 4.

[1] = test system: Echinochloa oryzicola Vasing; assay: Test for herbicidal effect by paddy soil treatment; assay type: in vivo
Source text: as §1

[2] = test system: Monochoria vaginalis (Burm. f.) Kunth; assay: Test for herbicidal effect by paddy soil treatment; assay type: in vivo
Source text: as §1

[3] = test system: Schoenoplectus juncoides (Roxb.) Paila; assay: Test for herbicidal effect by paddy soil treatment; assay type: in vivo
Source text: as §1

Transplanted Rice = assay: Test for herbicidal effect by paddy soil treatment: phytotoxicity to transplanted rice; assay type: in vivo, rice (variety: Kinnanpuu)
Source text: as §1, with “A wettable powder prepared in accordance with Formulation Example 2 was diluted with water based on the total sum of the active ingredients, and the dilution was dropped on the water surface of the pot.” left out

Direct seeding rice = assay: Test for herbicidal effect by paddy foliage treatment: phytotoxicity to direct seeding rice; assay type: in vivo, rice (variety: Akebono)
Source text: A paddy soil was filled in a plastic pot of 100 cm^2 and subjected to puddling. Thereinto were sowed seeds of rice (variety: Akebono), Echinochloa crusgalli (L.) P. Beauv. Var. crus-galli, Leptochloa chinensis Nees., Monochoria vaginalis (Burm. f.) Kunth, or Fimbristylis miliacea Vahl, after which each plant was raised in a greenhouse in a drained treatment until the Echinochloa crus-galli (L.) P. Beauv. Var. crus-galli reached a two-leaf stage. […] 3 days after the spraying, water was filled at a depth of 3 cm. Then, the pot was allowed to stand for raising. The herbicidal effect of the wettable powder was examined at the 28th day of the treatment (the spraying of the dilution) in accordance with the standard of Table 4.

[4] = test system: Echinochloa crusgalli (L.) P. Beauv. Var. crus-galli; assay: Test for herbicidal effect by paddy foliage treatment; assay type: in vivo
Source text: (§2) A paddy soil was filled in a plastic pot of 100 cm^2 and subjected to puddling. Thereinto were sowed seeds of rice (variety: Akebono), Echinochloa crusgalli (L.) P. Beauv. Var. crus-galli, Leptochloa chinensis Nees., Monochoria vaginalis (Burm. f.) Kunth, or Fimbristylis miliacea Vahl, after which each plant was raised in a greenhouse in a drained treatment until the Echinochloa crus-galli (L.) P. Beauv. Var. crus-galli reached a two-leaf stage. At that timing, a wettable powder prepared in accordance with Formulation Example 2 was diluted with water based on the total sum of the active ingredients, and the dilution was sprayed at a rate of 20 liters/10 ares using a micro-sprayer (a product of OLYMPOS). 3 days after the spraying, water was filled at a depth of 3 cm. Then, the pot was allowed to stand for raising. The herbicidal effect of the wettable powder was examined at the 28th day of the treatment (the spraying of the dilution) in accordance with the standard of Table 4.

[5] = test system: Fimbristylis miliacea Vahl; assay: as above; assay type: in vivo
Source text: as §2

[6] = test system: Leptochloa chinensis Nees.; assay: as above; assay type: in vivo
Source text: as §2

[7] = test system: Monochoria vaginalis (Burm. f.) Kunth; assay: as above; assay type: in vivo
Source text: as §2

| SMILES | phytotoxicity index, Transplanted Rice (Transplanted Rice; Dose 20 g a.i./10a) | herbicidal effect index, Cyperus serotinus (Cyperus serotinus Rottb.; Dose 20 g a.i./10a) | herbicidal effect index, Echinochloa oryzicola ([1]; Dose 20 g a.i./10a) | herbicidal effect index, Monochoria vaginalis ([2]; Dose 20 g a.i./10a) | herbicidal effect index, Schoenoplectus juncoides ([3]; Dose 20 g a.i./10a) | phytotoxicity index, Direct seeding rice (Direct seeding rice; Dose 20 g a.i./10a) | herbicidal effect index, Echinochloa crus-galli ([4]; Dose 20 g a.i./10a) | herbicidal effect index, Fimbristylis miliacea ([5]; Dose 20 g a.i./10a) | herbicidal effect index, Leptochloa chinensis ([6]; Dose 20 g a.i./10a) | herbicidal effect index, Monochoria vaginalis ([7]; Dose 20 g a.i./10a) | other results |
| --- | --- | --- | --- | --- | --- | --- | --- | --- | --- | --- | --- |
| COC(=O)c1ccccc1CS(=O)(=O)NC(=O)Nc1nc(OC)cc(OC)n1 [Bensulfuron-methyl, reference compound] |  |  |  |  |  |  |  |  |  |  | herbicidal effect index, Cyperus serotinus (Cyperus serotinus Rottb.; Dose 1 g a.i./10a): 7 (Herbicidal effect or phytotoxicity of 70% to less than 80%); herbicidal effect index, Echinochloa oryzicola ([1]; Dose 1 g a.i./10a): 3 (Herbicidal effect or phytotoxicity of 30% to less than 40%); herbicidal effect index, Monochoria vaginalis ([2]; Dose 1 g a.i./10a): 8 (Herbicidal effect or phytotoxicity of 80% to less than 90%); herbicidal effect index, Schoenoplectus juncoides ([3]; Dose 1 g a.i./10a): 7 (Herbicidal effect or phytotoxicity of 70% to less than 80%) |
| CC1(C)CC(SCc2ccccc2)=NO1 [Compound 1] | 1 (Herbicidal effect or phytotoxicity of 10% to less than 20%) | 2 (Herbicidal effect or phytotoxicity of 20% to less than 30%) | 8 (Herbicidal effect or phytotoxicity of 80% to less than 90%) | 4 (Herbicidal effect or phytotoxicity of 40% to less than 50%) | 6 (Herbicidal effect or phytotoxicity of 60% to less than 70%) |  |  |  |  |  |  |
| CC1(C)CC(S(=O)(=O)Cc2c(OCC(F)(F)F)ccc(Cl)c2Cl)=NO1 [Compound 31] | 1 (Herbicidal effect or phytotoxicity of 10% to less than 20%) | 2 (Herbicidal effect or phytotoxicity of 20% to less than 30%) | 8 (Herbicidal effect or phytotoxicity of 80% to less than 90%) | 5 (Herbicidal effect or phytotoxicity of 50% to less than 60%) | 4 (Herbicidal effect or phytotoxicity of 40% to less than 50%) | 2 (Herbicidal effect or phytotoxicity of 20% to less than 30%) | 6 (Herbicidal effect or phytotoxicity of 60% to less than 70%) | 2 (Herbicidal effect or phytotoxicity of 20% to less than 30%) | 3 (Herbicidal effect or phytotoxicity of 30% to less than 40%) | 3 (Herbicidal effect or phytotoxicity of 30% to less than 40%) |  |
| C#CCOc1ccc(Cl)c(Cl)c1CS(=O)(=O)C1=NOC(C)(C)C1 [Compound 33] |  |  |  |  |  | 1 (Herbicidal effect or phytotoxicity of 10% to less than 20%) | 7 (Herbicidal effect or phytotoxicity of 70% to less than 80%) | 3 (Herbicidal effect or phytotoxicity of 30% to less than 40%) | 6 (Herbicidal effect or phytotoxicity of 60% to less than 70%) | 6 (Herbicidal effect or phytotoxicity of 60% to less than 70%) |  |
| CC1(C)CC(S(=O)(=O)Cc2c(OCC(F)F)ccc(Cl)c2Cl)=NO1 [Compound 34] |  |  |  |  |  | 2 (Herbicidal effect or phytotoxicity of 20% to less than 30%) | 5 (Herbicidal effect or phytotoxicity of 50% to less than 60%) | 4 (Herbicidal effect or phytotoxicity of 40% to less than 50%) | 3 (Herbicidal effect or phytotoxicity of 30% to less than 40%) | 5 (Herbicidal effect or phytotoxicity of 50% to less than 60%) |  |
| CCOc1cc(Cl)c(CS(=O)(=O)C2=NOC(C)(C)C2)cc1Cl [Compound 54] | 1 (Herbicidal effect or phytotoxicity of 10% to less than 20%) | 1 (Herbicidal effect or phytotoxicity of 10% to less than 20%) | 8 (Herbicidal effect or phytotoxicity of 80% to less than 90%) | 5 (Herbicidal effect or phytotoxicity of 50% to less than 60%) | 2 (Herbicidal effect or phytotoxicity of 20% to less than 30%) | 2 (Herbicidal effect or phytotoxicity of 20% to less than 30%) | 7 (Herbicidal effect or phytotoxicity of 70% to less than 80%) | 2 (Herbicidal effect or phytotoxicity of 20% to less than 30%) | 6 (Herbicidal effect or phytotoxicity of 60% to less than 70%) | 4 (Herbicidal effect or phytotoxicity of 40% to less than 50%) |  |
| Cc1ccc(NC(=O)NC(C)(C)c2ccccc2)cc1 [Daimuron, reference compound] |  |  |  |  |  |  |  |  |  |  | herbicidal effect index, Cyperus serotinus (Cyperus serotinus Rottb.; Dose 150 g a.i./10a): 3 (Herbicidal effect or phytotoxicity of 30% to less than 40%); herbicidal effect index, Echinochloa oryzicola ([1]; Dose 150 g a.i./10a): 0 (Herbicidal effect (growth inhibition) or phytotoxicity of less that 10%); herbicidal effect index, Monochoria vaginalis ([2]; Dose 150 g a.i./10a): 2 (Herbicidal effect or phytotoxicity of 20% to less than 30%); herbicidal effect index, Schoenoplectus juncoides ([3]; Dose 150 g a.i./10a): 7 (Herbicidal effect or phytotoxicity of 70% to less than 80%) |
| CCC(CC)Nc1c([N+](=O)[O-])cc(C)c(C)c1[N+](=O)[O-] [Pendimethalin, reference compound] |  |  |  |  |  |  |  |  |  |  | phytotoxicity index, Direct seeding rice (Direct seeding rice; Dose 80 g a.i./10a): 1 (Herbicidal effect or phytotoxicity of 10% to less than 20%); herbicidal effect index, Echinochloa crus-galli ([4]; Dose 80 g a.i./10a): 5 (Herbicidal effect or phytotoxicity of 50% to less than 60%); herbicidal effect index, Fimbristylis miliacea ([5]; Dose 80 g a.i./10a): 3 (Herbicidal effect or phytotoxicity of 30% to less than 40%); herbicidal effect index, Leptochloa chinensis ([6]; Dose 80 g a.i./10a): 5 (Herbicidal effect or phytotoxicity of 50% to less than 60%); herbicidal effect index, Monochoria vaginalis ([7]; Dose 80 g a.i./10a): 2 (Herbicidal effect or phytotoxicity of 20% to less than 30%) |
| CCOC(=O)c1cnn(C)c1S(=O)(=O)NC(=O)Nc1nc(OC)cc(OC)n1 [Pyrazosulfuron-ethyl, reference compound] |  |  |  |  |  |  |  |  |  |  | phytotoxicity index, Direct seeding rice (Direct seeding rice; Dose 3 g a.i./10a): 1 (Herbicidal effect or phytotoxicity of 10% to less than 20%); herbicidal effect index, Echinochloa crus-galli ([4]; Dose 3 g a.i./10a): 2 (Herbicidal effect or phytotoxicity of 20% to less than 30%); herbicidal effect index, Fimbristylis miliacea ([5]; Dose 3 g a.i./10a): 8 (Herbicidal effect or phytotoxicity of 80% to less than 90%); herbicidal effect index, Leptochloa chinensis ([6]; Dose 3 g a.i./10a): 0 (Herbicidal effect (growth inhibition) or phytotoxicity of less that 10%); herbicidal effect index, Monochoria vaginalis ([7]; Dose 3 g a.i./10a): 6 (Herbicidal effect or phytotoxicity of 60% to less than 70%) |
| COCc1cccc(C(O)c2nc(OC)cc(OC)n2)c1NS(=O)(=O)C(F)F (stereo not shown) [Pyrimisulfan, reference compound] |  |  |  |  |  |  |  |  |  |  | phytotoxicity index, Transplanted Rice (Transplanted Rice; Dose 1 g a.i./10a): 1 (Herbicidal effect or phytotoxicity of 10% to less than 20%); herbicidal effect index, Cyperus serotinus (Cyperus serotinus Rottb.; Dose 1 g a.i./10a): 9 (Herbicidal effect or phytotoxicity of 90% to less than 100%); herbicidal effect index, Echinochloa oryzicola ([1]; Dose 1 g a.i./10a): 6 (Herbicidal effect or phytotoxicity of 60% to less than 70%); herbicidal effect index, Monochoria vaginalis ([2]; Dose 1 g a.i./10a): 6 (Herbicidal effect or phytotoxicity of 60% to less than 70%); herbicidal effect index, Schoenoplectus juncoides ([3]; Dose 1 g a.i./10a): 9 (Herbicidal effect or phytotoxicity of 90% to less than 100%) |

— patent publication US8114814B2, “Herbicide composition” (Kumiai Chemical Industry Co., Ltd., priority 2007, dated 2012)
